A short description of this data set: plasma concentration during oral administration in drinking water. It is filed as in vivo. To be noted: LDLr-null (LDLr−/−), mouse, orally in the drinking water at 25 mg/kg/day, limit of detection 1 μM. An excerpt:
We continued oral administration of the peptide to the animals for an additional eight weeks (ten weeks total for the study) to determine how the peptide would impact the development of atherosclerotic lesions (see FIG. 6 for treatment schedule). At the completion of the 10-week study, the total plasma cholesterol level in the peptide-treated animals was 30% lower than in control animals (FIG. 2c). Moreover, an analysis of the whole aorta lesion area and the aortic sinus lesion volume indicated reductions in atherosclerotic lesions of 26% and 50%, respectively (FIGS. 2c, d). […] When administered orally in the drinking water at 25 mg/kg/day, the plasma concentration of compound 1 was below the 1 μM limit of detection (data not shown).
LC-MS SIM quantitation of peptide concentration: Cyclic peptide concentrations were quantified by using reverse-phase HPLC coupled with mass spectrometry. The electrospray ionization mass spectrometry measurements were carried out in the positive ionization mode using a single quadrupole mass spectrometer (Hewlett Packard HP 1100 MSD series). […] For quantitative calibration, standard curves were established using mouse EDTA-anticoagulated plasma spiked with various concentrations of the peptide. […]

Non-standard residues stand in square brackets, D forms with d. Residues, ends and D or L forms follow the SMILES beside them.

Results on one compound are retold here after patent US10092620B2, “Uses of cyclic peptides for treating and preventing atherosclerosis” (THE SCRIPPS RESEARCH INSTITUTE, priority 2013, dated 2018).

Regarding `CC(C)C[C@@H]1NC(=O)[C@@H](Cc2c[nH]c3ccccc23)NC(=O)[C@H](CCCNC(=N)N)NC(=O)[C@@H](CCC(=O)O)NC(=O)[C@H](CCC(N)=O)NC(=O)[C@@H](CCC(=O)O)NC(=O)[C@H](CCCNC(=N)N)NC(=O)[C@@H](Cc2c[nH]c3ccccc23)NC1=O` [SEQ ID NO:1, c[wLwReQeR]] (cyclo([dW]L[dW]R[dE]Q[dE]R)), the level at time molar was < 1000 nM.
